Source: patent US20220031590A1, “ORAL CARE COMPOSITION” (SYMRISE AG, priority 2016, published 2022)

Tested on: in-vitro oral biofilms
Assay: Effect of treatment with active agents on the composition of in-vitro oral biofilms (Calgary Biofilm Device, 16S rRNA pyrosequencing)
Format: cell-based, oral bacteria
Source text: An in-vitro oral biofilm model for oral care product evaluation has recently been developed using the commercially available Calgary Biofilm Device (CBD) (Ceri, Olson, Stremick, Read, Morck, Buret, J Clin Microbiol. (1999) June; 37(6):1771-6) seeded with a natural saliva inoculum (Kistler, Pesaro, Wade, BMC Microbiol. (2015) December; 15(1):364). The pegs of the CBD were coated in hydroxyapatite to provide a surface that was chemically similar to tooth enamel. […] In addition, the composition of the biofilms was reproducible when derived from saliva of the same individuals at different time points.
Approximately 5 ml of saliva was collected from each volunteer by expectoration into sterile universal tubes. The saliva samples were then pooled together in equal volumes. DNA was extracted from an aliquot of the pooled saliva and 200 μl was pipetted into each well of a microtitre plate, as required. The wells around the edge of the microplate were not used. The device lid, with 96 hydroxyapatite-coated pegs (to mimic teeth) was fitted so that the pegs were bathed in saliva. The CBD was then incubated for 18 hours at 37° C. in air+5% CO2 after which the lid was transferred to a new baseplate containing Brain Heart Infusion (BHI) broth (Fluka Analytical) supplemented with hog gastric mucin (1 g/L), haemin (10 mg/L), and vitamin K (0.5 mg/L). The growth medium was changed after every 3.5 days.
The active agents were prepared as follows: 5% or 7.5% stock solutions were made in absolute ethanol. The stock solutions were then diluted to working concentration in sterile PBS. Thymol was diluted down to a final concentration of 0.1% v/v and the composition according to the invention, comprising 95% carrier and 5% of the compound of formula A, was diluted to 0.15% v/v. The final test concentration of the compound of formula A was 0.0075 wt.-%.
At 7 days, biofilms were treated with the active agents or a negative PBS control. […]
The bacterial composition of the biofilms and saliva was determined using 454 pyrosequencing of partial 16S rRNA genes. […]

`Cc1ccc(C(C)C)c(O)c1` [Thymol] was tested, and the “PCoA clustering of treated biofilms relative to negative control” value (community membership (Jaccard index) and structure (thetaYC)) was “did not cluster separately”, the “Mean no. of OTUs (sd)” value (richness of the biofilm community, treated twice daily for seven days, thymol 0.1% v/v, composition 0.15% v/v, 10 replicates) was 250.8 and the “Effect on the composition of in-vitro biofilms” value (summary statement) was “did not have a significant effect”.
